We go through 10 compounds from the supplement of paper PMC11061612.

The test system of test [1] is BxPC-3 (Pancreatic Carcinoma). Put plainly: Bliss excess, mean over the matrix (fraction); higher = more synergy. The gist of the method:
(§1)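 Cell lines grown in DMEM/F12 or RPMI with 10% FBS were plated in 1536-well plates and held 24 hours at 37°C, 5% CO2 before 72 hours of exposure to two-drug dose matrices, with DMSO typically at 0.2%. CellTiter-Glo 2.0 luminescence gave viability, which was converted to inhibition. Vehicle wells were set to 0 and blank wells to 1. Combination Emax is the second-highest inhibition in the matrix, and Bliss excess is the observed combination effect minus the expected EA + EB − EA·EB, where EA and EB are the single-agent effects.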

The test system of a further test is ES6 (Ewing's Sarcoma). The description is as above. An outline of the steps: as §1
The next test deals with GAK (Melanoma). The test is described as above. The gist of the method: as §1
The next test concerns KALS-1 (Glioblastoma). The description is as above. The gist of the method:
as §1

The subject of test [2] is KP-4 (Pancreatic Carcinoma). The test is described as above. The gist of the method: as §1
The subject of test [3] is MS-1 (Small Cell Lung Carcinoma). The description is as above. The gist of the method:
as §1

Test [4] deals with NAMALWA (Burkitt's Lymphoma). The description is as above. An outline of the steps:
as §1

Test [5] relates to RCC-JW (Kidney Carcinoma). The description is as above. The gist of the method:
as §1

Test [6] has as its system SCC-4 (Oral Cavity Carcinoma). The test is described as above. The gist of the method: as §1
A further test has as its system SK-N-SH (Neuroblastoma). Described as above. The gist of the method: as §1
Test [7] relates to SKG-IIIa (Cervical Carcinoma). The description is as above. The gist of the method: as §1
The test system of test [8] is T84 (Colorectal Carcinoma). The description is as above. The gist of the method:
as §1

For test [9], the system named is ZR-75-30 (Breast Carcinoma). Described as above. An outline of the steps:
as §1

The test system of test [10] is KP-4 (Pancreatic Carcinoma). Put plainly: combination Emax (second highest fraction inhibited in the dose matrix, 72 h); higher = more inhibition; extreme values may be limits of the assay. An outline of the steps: as §1
Test [11] relates to NCI-H1876 (Small Cell Lung Carcinoma). Put plainly: Bliss excess, mean over the matrix (fraction); higher = more synergy. The gist of the method: as §1
Test [12] concerns SNU-407 (Colorectal Carcinoma). Described as above. An outline of the steps:
as §1

Test [13] relates to NCI-H1876 (Small Cell Lung Carcinoma). Put plainly: combination Emax (second highest fraction inhibited in the dose matrix, 72 h); higher = more inhibition; extreme values may be limits of the assay. The gist of the method:
as §1

Test [14] relates to NCI-H596 (Other Solid Carcinomas). Described as above. The gist of the method: as §1
The test system of test [15] is OAW-28 (Ovarian Carcinoma). Described as above. The gist of the method: as §1
Test [16] relates to SNU-407 (Colorectal Carcinoma). The description is as above. The gist of the method:
as §1
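For Bliss excess, mean over the matrix in this document: after 72 h of two-drug dosing.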

Regarding `CS(=O)(=O)CCNCc1ccc(-c2ccc3ncnc(Nc4ccc(OCc5cccc(F)c5)c(Cl)c4)c3c2)o1` [Lapatinib] + Cn1cnc2c(F)c(Nc3ccc(Br)cc3Cl)c(C(=O)NOCCO)cc21 [Selumetinib] (first compound max 10 µM, 7x7, partner max 10 µM), the Bliss excess in test [1] was 0.0703; with ES6 (Ewing's Sarcoma), -0.0159; in the test with GAK (Melanoma), -0.0769; in the test on KALS-1 (Glioblastoma), 0.0025; in [2], 0.0641; in test [3], -0.0277. In addition, the Bliss excess in test [4] was -0.0003; in test [5], -0.0525; in test [6] it was 0.0318; with SK-N-SH (Neuroblastoma) it was -0.0123; in test [7], 0.001; in test [8] it was 0.058. The Bliss excess in test [9] was -0.0329. Further, the “combination Emax” value in [10] was determined as 0.382.
With `CS(=O)(=O)CCNCc1ccc(-c2ccc3ncnc(Nc4ccc(OCc5cccc(F)c5)c(Cl)c4)c3c2)o1` [Lapatinib] + NC1(c2ccc(-c3nc4ccn5c(=O)[nH]nc5c4cc3-c3ccccc3)cc2)CCC1 [MK-2206] (first compound max 10 µM, 7x7, partner max 10 µM), the Bliss excess in test [1] was 0.0263; in the test on ES6 (Ewing's Sarcoma), -0.0408; with GAK (Melanoma) it was 0.0347; in the test with KALS-1 (Glioblastoma), -0.004; in test [2], -0.0389; in [3] it was 0.0368. Further, the Bliss excess was 0.0388 in test [4]; 0.0885 in [11]; -0.0285 in test [5]; 0.0365 in [6]; -0.0194 in the test with SK-N-SH (Neuroblastoma); 0.0359 in test [7]. The Bliss excess in [12] is 0.0808; in test [8], 0.0453; in test [9] it was -0.0604. The “combination Emax” value in [10] came to 0.275; in test [13], 0.948; in test [14], 0.822; in test [15] it was 0.898; in test [16] it was 0.808.
For `O=C(c1cc(Cc2n[nH]c(=O)c3ccccc23)ccc1F)N1CCN(C(=O)C2CC2)CC1` [Olaparib] + CC1(C)CCC(CN2CCN(c3ccc(C(=O)NS(=O)(=O)c4ccc(NCC5CCOCC5)c([N+](=O)[O-])c4)c(Oc4cnc5[nH]ccc5c4)c3)CC2)=C(c2ccc(Cl)cc2)C1 [Venetoclax] (first compound max 10 µM, 7x7, partner max 1 µM), the Bliss excess was -0.0569 in test [1]; -0.0549 with ES6 (Ewing's Sarcoma); -0.048 in the test on GAK (Melanoma); -0.0353 in the test on KALS-1 (Glioblastoma); -0.0331 in [2]; -0.0266 in [3]. For the same compound, the Bliss excess is 0.0044 in test [4]; -0.045 in [5]; -0.0455 in [6]; 0.0412 with SK-N-SH (Neuroblastoma); -0.0695 in test [7]; -0.0524 in [8]. The Bliss excess in test [9] is -0.0247. The “combination Emax” value in test [10] was found to be 0.135.
Take `O=C(c1cc(Cc2n[nH]c(=O)c3ccccc23)ccc1F)N1CCN(C(=O)C2CC2)CC1` [Olaparib] + CN(CC[C@H](CSC1=CC=CC=C1)NC2=C(C=C(C=C2)S(=O)(=O)NC(=O)C3=CC=C(C=C3)N4CCC(CC4)[C@H](C5=CC=CC=C5C6=CC=C(C=C6)Cl)O)S(=O)(=O)C(F)(F)F)CCO [AZD4320] (first compound max 10 µM, 7x7, partner max 1 µM): the Bliss excess is -0.0424 in test [1]; -0.0216 in the test with ES6 (Ewing's Sarcoma); -0.0104 in the test with GAK (Melanoma); -0.0432 in the test on KALS-1 (Glioblastoma); -0.0113 in [2]; 0.0013 in test [3]. Besides, the Bliss excess is -0.0236 in test [4]; -0.0532 in [5]; -0.0161 in [6]; 0.0025 in the test with SK-N-SH (Neuroblastoma); -0.0526 in test [7]; -0.0441 in [8]. In addition, the Bliss excess in [9] was -0.0327. For the same compound, the “combination Emax” value in test [10] stood at 0.155.
For the compound `O=C(c1cc(Cc2n[nH]c(=O)c3ccccc23)ccc1F)N1CCN(C(=O)C2CC2)CC1` [Olaparib] + COc1nnc2ccc(N3CCC(c4ccc(OCCN5CCN(C)C(=O)[C@H]5C)cc4)CC3)nn12 [AZD5153] (first compound max 10 µM, 7x7, partner max 1 µM), the Bliss excess was -0.106 in [1]; -0.0941 in the test with ES6 (Ewing's Sarcoma); -0.0642 with GAK (Melanoma); -0.0141 in the test on KALS-1 (Glioblastoma); -0.0266 in [2]; -0.0426 in [3]. Moreover, the Bliss excess is -0.0519 in [4]; -0.143 in test [5]; -0.0472 in test [6]; -0.0402 with SK-N-SH (Neuroblastoma); -0.0383 in test [7]; -0.0698 in [8]. Besides, the Bliss excess in test [9] was -0.0502. The “combination Emax” value in [10] amounted to 0.532.
Take `O=C(c1cc(Cc2n[nH]c(=O)c3ccccc23)ccc1F)N1CCN(C(=O)C2CC2)CC1` [Olaparib] + Cc1c2c(nn1C)CSCc1cc(n(C)n1)CSc1cc(c3ccccc3c1)OCCCc1c(C(=O)O)n(C)c3c-2c(Cl)ccc13 [AZD5991] (first compound max 10 µM, 7x7, partner max 1 µM): the Bliss excess in test [1] is -0.066; with ES6 (Ewing's Sarcoma), -0.0431; with GAK (Melanoma) it was -0.0516; in the test on KALS-1 (Glioblastoma), -0.0158; in test [2], -0.0386; in test [3] it was -0.0481. The Bliss excess in test [4] was -0.0026; in test [5], -0.0125; in test [6] it was -0.0491; with SK-N-SH (Neuroblastoma), -0.0445; in [7], -0.0562; in test [8], -0.0266. Moreover, the Bliss excess in [9] was -0.0227. For the same compound, the “combination Emax” value in [10] was determined as 0.113.
On to `N#Cc1cnc(Nc2cc(NC[C@H]3CNCCO3)c(C(F)(F)F)cn2)cn1` [SRA737] + C=CCn1c(=O)c2cnc(Nc3ccc(N4CCN(C)CC4)cc3)nc2n1-c1cccc(C(C)(C)O)n1 [AZD1775] (first compound max 10 µM, partner max 1 µM), for which the Bliss excess in test [1] was 0.0061; in the test with ES6 (Ewing's Sarcoma), 0.0022; in the test on GAK (Melanoma), 0.0525; with KALS-1 (Glioblastoma), 0.0439; in test [2], 0.0595; in test [3], 0.078. For the same compound, the Bliss excess in test [4] is 0.0724; in [5], -0.002; in test [6] it was 0.0374; in the test with SK-N-SH (Neuroblastoma), 0.0281; in test [7], -0.031; in test [8], 0.0022. In addition, the Bliss excess in [9] is -0.0093. Besides, the “combination Emax” value in [10] was determined as 0.597.
With `N#Cc1cnc(Nc2cc(NC[C@H]3CNCCO3)c(C(F)(F)F)cn2)cn1` [SRA737] + O=c1[nH]cc(F)c(=O)[nH]1 [5-Fluorouracil] (first compound max 10 µM, 7x7, partner max 20 µM), the Bliss excess is -0.0019 in test [1]; -0.0508 in the test on ES6 (Ewing's Sarcoma); -0.012 in the test with GAK (Melanoma); 0.0085 in the test on KALS-1 (Glioblastoma); 0.0334 in test [2]; -0.0821 in [3]. For the same compound, the Bliss excess in test [4] is 0.0157; in test [5] it was -0.0355; in [6] it was 0.0952; with SK-N-SH (Neuroblastoma), -0.0499; in test [7], 0.0284; in test [8], 0.0458. In test [9], the Bliss excess is -0.0283. Besides, in test [10], the “combination Emax” value amounted to 0.376.
As for `Cc1nc(-c2cn3c(n2)-c2ccc(-c4cnn(C(C)(C)C(N)=O)c4)cc2OCC3)n(C(C)C)n1` [Taselisib] + O=C(Nc1ccc2[nH]nc(-c3ccncc3)c2c1)[C@@H]1CCN(CC(=O)N2CCN(c3ccc(-c4ncccn4)cc3)CC2)C1 [SCH772984] (first compound max 10 µM, 7x7, partner max 5 µM), the Bliss excess in test [1] is 0.133; in the test on ES6 (Ewing's Sarcoma), -0.0318; with GAK (Melanoma), 0.0592; in the test with KALS-1 (Glioblastoma), -0.0253; in test [2] it was 0.215; in test [3], 0.0145. Moreover, the Bliss excess in test [4] was 0.0894; in test [5], -0.0167; in test [6] it was 0.0899; in the test with SK-N-SH (Neuroblastoma) it was 0.0498; in test [7] it was 0.0751; in test [8], 0.072. Further, the Bliss excess in test [9] is 0.0556. For the same compound, the “combination Emax” value in [10] came to 0.776.
Turning to `CC1(C)CCC(CN2CCN(c3ccc(C(=O)NS(=O)(=O)c4ccc(NCC5CCOCC5)c([N+](=O)[O-])c4)c(Oc4cnc5[nH]ccc5c4)c3)CC2)=C(c2ccc(Cl)cc2)C1` [Venetoclax] + CS(=O)(=O)CCNCc1ccc(-c2ccc3ncnc(Nc4ccc(OCc5cccc(F)c5)c(Cl)c4)c3c2)o1 [Lapatinib] (first compound max 1 µM, 7x7, partner max 10 µM), the Bliss excess in [1] was -0.0299; in the test with ES6 (Ewing's Sarcoma) it was -0.0675; in the test on GAK (Melanoma) it was 0.0293; in the test on KALS-1 (Glioblastoma), -0.0431; in test [2], -0.0168; in test [3] it was -0.0021. In addition, the Bliss excess is -0.0072 in test [4]; -0.0229 in test [5]; -0.0231 in [6]; 0.008 in the test with SK-N-SH (Neuroblastoma); -0.0674 in [7]; -0.0151 in test [8]. Also, the Bliss excess in test [9] came out at 0.0215. The “combination Emax” value in test [10] came to 0.0862.
